Where “and” joins values, the source holds several entries; their conditions need not be identical. Identical values can stand only once. Like-named read-outs stand apart in the source and are kept apart here.
Assays:
[1] = test system: emotional lability; experiment: Suppression of emotional lability in ALS patients; format: in vivo, human
Description: Emotional lability is a complex problem in which patients suffering from neurological damage (typically due to a stroke or head injury or a neurologic disease such as ALS or Alzheimer's disease) become unable to control spasmodic emotional outbursts such as explosive laughing or uncontrollable weeping. This discovery involving emotional lability is discussed in U.S. Pat. No. 5,206,248, which was also invented by the Applicant; the contents of that patent are incorporated by reference.
(§1) All patients who became involved in the study initially received DM and/or quinidine alone, to ensure that these drugs would not adversely affect them. The drugs were coadministered only after a tolerance and/or dosage range for one drug had been established for a patient.

[2] = test system: debrisoquin hydroxylase; experiment: Urinary DM/DR ratio after oral dextromethorphan without and with quinidine (Example 1); format: in vivo, human; details: ALS patients
Experimental: Since the research that led to this invention was done by a neurologist who was initially interested in finding out whether DM might be able to retard the progress of ALS, the initial studies were done on patients suffering from ALS, most of whom are adults more than 50 years old.
Six patients suffering from ALS were administered orally a single 60 mg dextromethorphan dose. Several hours later, a urine sample was collected, and the urine concentrations of dextromethorphan (DM) and dextrorphan (DR) were measured as described below to determine a DM/DR ratio. […] In a different week, 60 mg of DM and 150 mg of quinidine were orally administered to the same patients, and urinary DM and DR levels and DM/DR ratios were determined again.
DM and DR urinary levels without quinidine were determined by adding […] of thebaine as an internal standard to 1 mL of urine. To this was added 2000 units of beta-glucuronidase in 1 mL of acetate buffer (0.1M, pH 5.0). The mixture was incubated for 18 hours at 37° C. and then extracted by adding 1 mL of phosphate buffer (pH 12, 0.10M) and 7 mL of n-butanol/hexane (10:90 v/v). After mixing and centrifugation, the organic layer was transferred to a clean tube and acidified with 400 uL of 0.01 N HCL. 20 microliters (uL) of aqueous phase was injected into a high performance liquid chromatography (HPLC) system. The HPLC used a phenyl column equilibrated with a mobile phase of acetonitrile:water (51:49, v/v) containing 10 mM KHPO4, 10 mM hexane sulfonic acid, pH 4.0 (flow rate 1.2 mL/min). Detection of thebaine, dextromethorphan and dextrorphan was achieved by fluorescence (Kratos FS-980 Fluorometer) with an excitation wavelength of 228 nm and no emission cutoff filter.
A gas chromatograph/mass spectroscopy (gc/ms) assay was employed for determining dextromethorphan and dextrorphan levels in the presence of quinidine. Briefly, 0.5 ml urine samples were spiked with 500 nanograms (ng) of dimethacrine. The urine pH was adjusted to 5.0 with 0.1M acetate buffer (usually about 1.0 ml), and beta-glucuronidase was added (2000 units/ml urine). […]

[3] = test system: neuronal calcium channels; details: reportedly, Carpenter et al 1988, cited from earlier work
[4] = test system: sigma receptors; details: reportedly; cited from earlier work
[5] = test system: ALS patients; experiment: Tolerance and side effects in ALS patients and control subjects; format: in vivo, human; details: ALS patients and controls; drug(s) as labelled
Description: as §1
However, quinidine is not pharmaceutically acceptable by all patients.

[6] = test system: ALS; experiment: Effect on progress of ALS; format: in vivo, human; details: loss of strength, slurring of speech, other muscular symptoms
Description: As mentioned above, DM is being studied as a possible treatment for neurodegenerative diseases such as Parkinson's disease, Alzheimer's disease, and ALS. Accordingly, the Applicant, a neurologist who specializes in working with ALS patients, undertook a study of DM to determine whether it might be able to retard the progress of ALS.
However, during the course of that study, other important findings emerged, as discussed below.

[7] = Plasma concentration of DM 10-12 hours after oral dosing, without and with quinidine (Examples 2 and 3); format: in vivo, human; details: 10-12 hours, one value per patient
Experimental: Plasma Concentrations of DM
Five patients were orally administered 120 mg of DM, with no co-administration of quinidine. Between 10 and 12 hours later, blood was sampled, blood plasma was isolated by centrifugation, and the plasma was analyzed to determine the DM concentration using the thebaine/HPLC method.
During a different week, the same patients were orally administered 60 mg of DM (half the control dosage) and 150 mg of quinidine. Between 10 and 12 hours later, blood was sampled and the plasma was analyzed for DM using thebaine/HPLC.
Additional studies were undertaken using a range of dosages of DM to establish a dose-response curve that correlates the quantity of DM orally administered to a patient with blood plasma concentrations 10 to 12 hours later (determined as described in Example 2). All patients received 150 mg of quinidine daily. The results of those studies are shown in graphical form in FIG. 2, with mean values shown as open squares and standard deviation ranges shown by vertical bars. The ascending line through the median values is a linear approximation; a curve based on more extensive data would probably show a horizontal asymptote.

[8] = most people; cited from earlier work
[9] = test system: debrisoquin hydroxylase; experiment: Urinary DM/DR ratio with other antioxidants in specific patients (Example 5); details: urine, HPLC; preliminary; one value per patient
Description: The second method involves sampling body fluids to compare the concentrations of DM and its primary metabolite, dextrorphan (DR). Although blood concentrations can be directly evaluated by drawing blood samples if desired, an easier and painless approach is to analyze urine samples. Blood or urine samples can be processed using methods such as high performance liquid chromatography (HPLC), as described in Example 5. […] The height of each peak, or the area under each peak, will indicate the quantity of each compound in the blood or urine sample. The heights of the DM and DR peaks are then divided, to determine the DM/DR ratio. The ratio which occurs after administration of a candidate antioxidant drug is compared to the DM/DR ratio in the same patient under control conditions (i.e., before administration of any antioxidant).
Preliminary Analysis of Other Antioxidants
To further evaluate that possibility, the Applicant arranged for chemical analyses of urine samples, using HPLC, in the labs of an independent investigator.

[10] = test system: N-methyl-D-aspartate (NMDA) receptors; details: reportedly; cited from earlier work
[11] = test system: ALS patients; details: DM up to about 300 mg/day or higher; quinidine in prolonged QT interval; cited from earlier work
[12] = test system: dermatitis; experiment: Suppression of dermatitis (lichen planus; severe intermittent dermatitis) in patients; format: in vivo, human; details: patients treated with DM alone
Description: Suppression of Dermatitis
During an initial examination, the Applicant discovered that patient two, a Caucasion person who was suffering from ALS, suffered from a severe dermatologic condition involving lesions which appear in relatively small purplish patches ("polygonal papules"). Their condition had recently been diagnosed as lichen planus. The etiology is unknown, although a variety of drugs reportedly can aggravate this condition. The patient reported that the lesions were severely itchy, and they had been suffering from it for roughly ten years. They had been prescribed a number of drugs (including various steroids such as prednisone) in an effort to control the itching; the most recent prescription was "Doxepin," a tricyclic antidepressant. None of those agents offered much relief.
The patient began an initial treatment of quinidine alone (150 mg/day) for a week.
The specialist carried out a preliminary test involving DM and quinidine on a person who suffered from severe but intermittent dermatitis.

COc1ccc2c(c1)[C@@]13CCCC[C@H]1[C@@H](C2)N(C)CC3 [DM, (+)-3-methoxy-N-methylmorphinan]
Reduction of emotional lability symptoms [1]: not observed in any patients who received DM alone | Metabolism of DM in ALS patients vs healthy adults [2]: No difference in the metabolism | Activity at neuronal calcium channels ([3]; listed as Dextromethorphan): suppress neural activity mediated by neuronal calcium channels | Activity at neuronal calcium channels ([3]; listed as dextromethorphan): calcium channel antagonists | Activity at sigma receptors [4]: sigma agonists | Adverse side effects [5]: no ill effects | Slowing of progressive ALS symptoms [6]: not able to slow down the progressive loss of strength, slurring of speech, and other muscular symptoms | DM plasma level, with quinidine ([7]; 60 mg DM once oral + quinidine 150 mg): 33 ng/mL and 29.7 ng/mL and 29.0 ng/mL and 28.8 ng/mL and 45.6 ng/mL | DM plasma level, no quinidine ([7]; 120 mg/day DM oral, quinidine dose 0): 9.3 ng/mL and 16.5 ng/mL and 6.05 ng/mL | Disappearance from the bloodstream [8]: disappears fairly rapidly from the bloodstream | DM/DR ratio, no antioxidant [9]: 0.02 and 0.00 and 0.06 and 0.03 | Activity at NMDA receptors [10]: NMDA antagonists | Adverse effects (general knowledge) [11]: any adverse effects (such as dizziness or nausea) usually disappear quickly when the dosage is lowered | Therapeutic benefits (emotional lability and dermatitis) [12]: not detectable
